According to patent US20100234221A1, “USE OF TETRAMIC ACID DERIVATIVES WITH FERTILIZERS” (BAYER CROPSCIENCE AG, priority 2006, published 2010):

What was measured:
[1] = test system: cotton aphids (Aphis gossypii); assay: Example B-1: spray treatment of cotton plants heavily infested by cotton aphids; type: in vivo; settings: AHL or NH4NO3 12.5 g/l, RME 1 g ai/l where added
Experimental: To prepare a suitable product solution, 1 part by weight of formulated goods (for example an oil suspension OD 150 prepared according to known methods) is mixed with water to give the desired concentration. The desired fertilizer or penetrant is added in a defined amount and mixed in well.
Cotton plants (Gossypium herbaceum) which are heavily infested by the cotton aphids (Aphis gossypii) are treated by spraying with the product solution at the desired concentration.
After the desired period of time, the kill in % is determined. Here, 100% means that all aphids have been killed; 0% means that none of the aphids have been killed.

[2] = test system: Aphis gossypii; assay: Use Example A: field plots of cotton sprayed against Aphis gossypii; type: in vivo; settings: cotton FM966LL field plots, I-4 44 g of a.i./ha, Dyne-amic 0.455 % (v/v), UAN 0.7 % (v/v) where added
Experimental: In three replications, plots of a size of about 66 m^2 with cotton of the cultivar FM966LL are treated against Aphis gossypii. Here, the active compound I-4 (as 1500D formulation) is applied with a sprayer (High Clearance Sprayer, High Boy) at the stated application rates. The amount of water applied is about 150 l/ha. An adjuvant and/or a fertilizer (UAN=ammonium nitrate/urea solution with 28% by weight of nitrogen) are added to the spray liquor at the stated concentration. Here, it becomes evident that the composition according to the invention is equivalent to a composition comprising an adjuvant known to be efficient.

Structure (SMILES): CCOC(=O)OC1=C(c2cc(C)ccc2C)C(=O)N[C@]12CC[C@@H](OC)CC2 [Compound I-4]
- Kill in % after 7d ([1]; I-4 0.96 g ai/ha): 25%
- Kill in % after 7d ([1]; I-4 4.8 g ai/ha): 90%
- Effect (% Abbott) After 2 days ([2]; after 2 days): 66.7 % Abbott
- Effect (% Abbott) After 5 days ([2]; after 5 days): 65.8 % Abbott
- Effect (% Abbott) After 9 days ([2]; after 9 days): 13.9 % Abbott
